Activity calls are given as the source filed them.
Key:
[1] = biological target: T1, Trace amine-associated receptor 1 (Homo sapiens, UniProt Q96RJ0); test: Counterscreen for agonists of the human trace amine associated receptor 1 (hTAAR1): Fluorescence-based cell-based high throughput dose response assay to identify hTAAR1 agonist that also desensitize TAAR1 receptor response.; type: functional
T1 sequence (Q96RJ0 whole entry): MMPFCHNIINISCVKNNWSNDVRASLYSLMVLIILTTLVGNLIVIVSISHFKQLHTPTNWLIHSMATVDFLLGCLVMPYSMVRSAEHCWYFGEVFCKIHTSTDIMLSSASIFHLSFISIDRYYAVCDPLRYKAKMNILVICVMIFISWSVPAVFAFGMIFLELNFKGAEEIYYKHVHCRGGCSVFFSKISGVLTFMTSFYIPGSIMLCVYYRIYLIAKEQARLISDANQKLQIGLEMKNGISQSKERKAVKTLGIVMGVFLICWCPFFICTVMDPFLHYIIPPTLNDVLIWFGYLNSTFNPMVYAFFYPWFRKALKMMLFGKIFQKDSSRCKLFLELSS

cells [2] = type: functional, cell-based
cells [3] = type: functional, cell-based; remark: listed apart in the source
[4] = biological target: T1, Trace amine-associated receptor 1; test: Fluorescence-based cell-based high throughput dose response assay to identify agonists of the human trace amine associated receptor 1 (TAAR1).; type: functional
[5] = microbe, parasite or virus in culture; type: functional; settings: Mycobacterium tuberculosis
[6] = rise of 2N DNA cells, HeLa – IC50, dose response (AID 1117349); type: functional, cell-based
[7] = rise of 4N DNA cells, HeLa – IC50, dose response (AID 1117351); type: functional, cell-based
[8] = biological target: T2, Rac GTPase-activating protein 1 (Homo sapiens, UniProt Q9H0H5); test: blockers of MgcRacGAP-driven Rac1 GTP hydrolysis – biochemical, ADP Hunter fluorescence, primary and confirmatory, confirmation (AID 624330); type: functional
T2 sequence (Q9H0H5 whole entry): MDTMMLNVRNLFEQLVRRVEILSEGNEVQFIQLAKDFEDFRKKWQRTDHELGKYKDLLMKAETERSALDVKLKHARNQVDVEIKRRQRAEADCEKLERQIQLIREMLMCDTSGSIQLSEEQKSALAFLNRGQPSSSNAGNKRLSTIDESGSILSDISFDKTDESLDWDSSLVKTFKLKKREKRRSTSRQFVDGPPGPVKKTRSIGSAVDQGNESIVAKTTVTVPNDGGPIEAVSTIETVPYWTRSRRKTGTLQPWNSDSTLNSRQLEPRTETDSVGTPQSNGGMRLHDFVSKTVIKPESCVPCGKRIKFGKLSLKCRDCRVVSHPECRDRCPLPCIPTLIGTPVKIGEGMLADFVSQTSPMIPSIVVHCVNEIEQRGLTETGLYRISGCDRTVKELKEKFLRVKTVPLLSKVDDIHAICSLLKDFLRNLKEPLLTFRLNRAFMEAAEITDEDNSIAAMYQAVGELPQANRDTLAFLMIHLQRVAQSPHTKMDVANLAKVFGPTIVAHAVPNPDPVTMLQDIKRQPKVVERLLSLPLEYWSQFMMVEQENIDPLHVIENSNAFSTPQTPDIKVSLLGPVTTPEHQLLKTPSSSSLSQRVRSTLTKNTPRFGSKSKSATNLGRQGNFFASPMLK

Large T antigen = Large T antigen (Simian virus 40, UniProt P03070); type: functional, Betapolyomavirus macacae;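 note: Confirmatory-stage PubChem screen for compounds that inhibit SV40 T antigen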
[9] = biological target: T3, Hepatocyte nuclear factor 4-alpha (Homo sapiens, UniProt P41235); type: functional, cell-based;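 note: biochemical luminescence-based dose-response counterscreen measuring inhibition of HNF4 dimerization, run alongside a screen for blockers of ABHD5–perilipin-5 interaction; split luciferase complementation of HNF4 fusion proteins in cell lysate measuring dimerization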
T3 sequence (P41235 whole entry): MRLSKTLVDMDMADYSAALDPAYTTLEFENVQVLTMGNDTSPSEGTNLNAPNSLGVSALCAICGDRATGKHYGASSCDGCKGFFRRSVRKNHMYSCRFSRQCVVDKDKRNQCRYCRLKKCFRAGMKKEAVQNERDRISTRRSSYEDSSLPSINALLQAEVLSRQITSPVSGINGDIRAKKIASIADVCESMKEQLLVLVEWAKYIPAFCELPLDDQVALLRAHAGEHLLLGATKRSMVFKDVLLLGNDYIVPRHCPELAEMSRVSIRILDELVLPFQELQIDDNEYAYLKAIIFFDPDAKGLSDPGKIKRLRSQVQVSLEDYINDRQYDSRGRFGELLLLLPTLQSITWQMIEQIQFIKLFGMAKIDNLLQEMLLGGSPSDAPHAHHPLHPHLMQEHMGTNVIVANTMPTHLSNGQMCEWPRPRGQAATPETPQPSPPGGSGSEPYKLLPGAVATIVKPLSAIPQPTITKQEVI

Estrogen receptor beta = Estrogen receptor beta (Homo sapiens, UniProt Q92731);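 note: recombinant ER-beta bound to coactivator SRC1 peptide in presence of estradiol agonist; inhibitors block coactivator peptide binding and lower the FRET signal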
Coagulation factor XII = biological target: T4, Coagulation factor XII (Homo sapiens, UniProt P00748); type: functional;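 note: activated factor XIIa alpha cleaving a fluorogenic AMC peptide substrate; inhibitor potency from loss of enzyme activity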
T4 sequence (P00748 whole entry): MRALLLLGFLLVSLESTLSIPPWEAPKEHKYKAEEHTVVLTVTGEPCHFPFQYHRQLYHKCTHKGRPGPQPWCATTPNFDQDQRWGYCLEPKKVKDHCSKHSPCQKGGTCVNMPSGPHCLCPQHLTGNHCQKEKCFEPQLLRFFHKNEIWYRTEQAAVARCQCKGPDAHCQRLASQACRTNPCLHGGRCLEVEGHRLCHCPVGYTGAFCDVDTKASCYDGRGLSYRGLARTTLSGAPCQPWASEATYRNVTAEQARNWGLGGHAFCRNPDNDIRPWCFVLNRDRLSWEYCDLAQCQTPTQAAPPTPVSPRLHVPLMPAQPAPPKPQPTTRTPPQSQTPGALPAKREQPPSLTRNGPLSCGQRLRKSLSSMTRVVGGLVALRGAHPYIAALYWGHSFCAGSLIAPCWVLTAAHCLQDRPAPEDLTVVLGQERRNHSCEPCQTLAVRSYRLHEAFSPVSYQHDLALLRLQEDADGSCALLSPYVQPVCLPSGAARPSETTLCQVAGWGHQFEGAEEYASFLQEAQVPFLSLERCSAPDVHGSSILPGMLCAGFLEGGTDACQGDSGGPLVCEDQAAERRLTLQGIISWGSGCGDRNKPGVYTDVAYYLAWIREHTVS

[10] = biological target: Protein-tyrosine kinase 2-beta (Homo sapiens, UniProt Q14289);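 note: potency of inhibitors of PYK2 kinase phosphorylation of poly-GT substrate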
[11] = biological target: Peroxisome proliferator-activated receptor gamma/Nuclear receptor coactivator 1 (Homo sapiens, UniProt P37231); test: (§1) TR-FRET dose response biochemical High Throughput Screening assay for agonists of the steroid receptor coactivator 1 (SRC-1) recruitment by the peroxisome proliferator-activated receptor gamma (PPAR gamma): non-selective agonists. [Related pubchem assays (depositor defined):AID1300, AID1808, AID504735, AID631]; type: protein assay
[12] = biological target: Peroxisome proliferator-activated receptor gamma/Nuclear receptor coactivator 3 (Homo sapiens, UniProt P37231); test: as §1, with “3 (SRC-3)” for “1 (SRC-1)”, “assays: 1301 (Confirmation screen.), 1048 (Primary screen.)]” for “assays (depositor defined):AID1300, AID1808, AID504735, AID631]”; type: functional
[13] = biological target: Peroxisome proliferator-activated receptor gamma/Nuclear receptor coactivator 2 (Homo sapiens, UniProt P37231); test: TR-FRET dose response biochemical High Throughput Screening assay for agonists of the steroid receptor coactivator 2 (SRC-2) recruitment by the peroxisome proliferator-activated receptor gamma (PPAR gamma): non-selective agonists. [Related pubchem assays: 1297, 1032 ]; type: functional
[14] = HEK-293T cell viability reduction – luminescence, B-cell screen hits, cytotoxicity control for BCR NF-kB inhibitor project, dose response (AID 489021); type: functional, cell-based;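 note: HEK-293T cells carrying an NF-kB luciferase reporter; cells exposed to compound for about 14 hours before viability readout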
Streptococcus = test: GAS UMAA2166 growth inhibition – luminescence, BacTiterGlo, counter-screen for streptokinase expression inhibitor project, dose response (AID 1915); type: functional, organism-based;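 note: potency for reduction of bacterial viability or growth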
Streptokinase A = biological target: T5, Streptokinase A (Streptococcus pyogenes serotype M1, UniProt P10520); test: viability-normalized secreted streptokinase activity reduction – plasminogen activation absorbance, OD405, dose response (AID 1914); type: functional, Streptococcus pyogenes M1 GAS;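 note: secreted streptokinase activity via plasminogen activation per viability signal from cell pellet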
T5 sequence (P10520 whole entry): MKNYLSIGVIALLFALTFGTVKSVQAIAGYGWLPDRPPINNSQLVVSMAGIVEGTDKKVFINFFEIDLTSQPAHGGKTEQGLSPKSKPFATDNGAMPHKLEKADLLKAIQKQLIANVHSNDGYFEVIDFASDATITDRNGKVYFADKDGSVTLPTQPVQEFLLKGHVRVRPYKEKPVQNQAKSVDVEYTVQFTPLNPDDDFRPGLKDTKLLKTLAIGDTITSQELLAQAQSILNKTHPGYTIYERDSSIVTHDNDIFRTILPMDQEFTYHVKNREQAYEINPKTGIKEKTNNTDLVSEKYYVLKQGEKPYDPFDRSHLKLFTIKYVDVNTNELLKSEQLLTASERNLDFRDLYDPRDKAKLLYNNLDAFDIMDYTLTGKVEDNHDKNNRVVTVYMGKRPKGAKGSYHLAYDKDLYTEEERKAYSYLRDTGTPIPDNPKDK

[15] = tested on: Streptococcus sp. 'group A'; test: Streptococcus pyogenes SK(-)GAS viability under kanamycin – luminescence, BacTiterGlo, confirmation, counter-screen for streptokinase expression inhibitor project, dose response (AID 1900); type: functional, organism-based
H9c2 = test: cells; type: functional, cell-based; settings: Rattus norvegicus, H9c2, Myocardium;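 note: confirmatory concentration-response retest of ultra-high-throughput screening hits for modulation of myocardial damage; cell death induced by hydrogen peroxide oxidative stress; compound pretreatment for 60 min then peroxide exposure for 2 h; potency is for protecting the cells against peroxide damage rather than for killing them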
[16] = biological target: Voltage-dependent T-type calcium channel subunit alpha-1H (Homo sapiens, UniProt O95180); type: functional;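 note: channel activity triggered by adding a high calcium stimulation buffer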
[17] = viability of uninfected HEp-2 cells – cell-based, HTS, cytotoxicity control for RSV inhibitor project, dose response (AID 2410); type: functional; settings: human respiratory syncytial virus
cells [18] = type: functional, cell-based; remark: listed apart in the source
cells [19] = type: functional, cell-based; remark: listed apart in the source
Cytochrome P450 2C19 = Cytochrome P450 2C19 (Homo sapiens, UniProt P33261); test: Cytochrome panel assay with activity outcomes. Panel member name: p450-cyp2c19 Compounds with AC50 equal or less than 10 uM are considered active; type: functional
INS1 = test: INS-1E survival protection against cytokine death – cell-based, luminescence, retest, dose response (AID 449756); type: functional; settings: Rattus norvegicus;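 note: cell death triggered by IL-1 beta plus TNF-alpha plus IFN-gamma mixture; protective hits raise ATP signal compared with cytokine alone wells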

Sequence of Voltage-dependent T-type calcium channel subunit alpha-1H (O95180 whole entry): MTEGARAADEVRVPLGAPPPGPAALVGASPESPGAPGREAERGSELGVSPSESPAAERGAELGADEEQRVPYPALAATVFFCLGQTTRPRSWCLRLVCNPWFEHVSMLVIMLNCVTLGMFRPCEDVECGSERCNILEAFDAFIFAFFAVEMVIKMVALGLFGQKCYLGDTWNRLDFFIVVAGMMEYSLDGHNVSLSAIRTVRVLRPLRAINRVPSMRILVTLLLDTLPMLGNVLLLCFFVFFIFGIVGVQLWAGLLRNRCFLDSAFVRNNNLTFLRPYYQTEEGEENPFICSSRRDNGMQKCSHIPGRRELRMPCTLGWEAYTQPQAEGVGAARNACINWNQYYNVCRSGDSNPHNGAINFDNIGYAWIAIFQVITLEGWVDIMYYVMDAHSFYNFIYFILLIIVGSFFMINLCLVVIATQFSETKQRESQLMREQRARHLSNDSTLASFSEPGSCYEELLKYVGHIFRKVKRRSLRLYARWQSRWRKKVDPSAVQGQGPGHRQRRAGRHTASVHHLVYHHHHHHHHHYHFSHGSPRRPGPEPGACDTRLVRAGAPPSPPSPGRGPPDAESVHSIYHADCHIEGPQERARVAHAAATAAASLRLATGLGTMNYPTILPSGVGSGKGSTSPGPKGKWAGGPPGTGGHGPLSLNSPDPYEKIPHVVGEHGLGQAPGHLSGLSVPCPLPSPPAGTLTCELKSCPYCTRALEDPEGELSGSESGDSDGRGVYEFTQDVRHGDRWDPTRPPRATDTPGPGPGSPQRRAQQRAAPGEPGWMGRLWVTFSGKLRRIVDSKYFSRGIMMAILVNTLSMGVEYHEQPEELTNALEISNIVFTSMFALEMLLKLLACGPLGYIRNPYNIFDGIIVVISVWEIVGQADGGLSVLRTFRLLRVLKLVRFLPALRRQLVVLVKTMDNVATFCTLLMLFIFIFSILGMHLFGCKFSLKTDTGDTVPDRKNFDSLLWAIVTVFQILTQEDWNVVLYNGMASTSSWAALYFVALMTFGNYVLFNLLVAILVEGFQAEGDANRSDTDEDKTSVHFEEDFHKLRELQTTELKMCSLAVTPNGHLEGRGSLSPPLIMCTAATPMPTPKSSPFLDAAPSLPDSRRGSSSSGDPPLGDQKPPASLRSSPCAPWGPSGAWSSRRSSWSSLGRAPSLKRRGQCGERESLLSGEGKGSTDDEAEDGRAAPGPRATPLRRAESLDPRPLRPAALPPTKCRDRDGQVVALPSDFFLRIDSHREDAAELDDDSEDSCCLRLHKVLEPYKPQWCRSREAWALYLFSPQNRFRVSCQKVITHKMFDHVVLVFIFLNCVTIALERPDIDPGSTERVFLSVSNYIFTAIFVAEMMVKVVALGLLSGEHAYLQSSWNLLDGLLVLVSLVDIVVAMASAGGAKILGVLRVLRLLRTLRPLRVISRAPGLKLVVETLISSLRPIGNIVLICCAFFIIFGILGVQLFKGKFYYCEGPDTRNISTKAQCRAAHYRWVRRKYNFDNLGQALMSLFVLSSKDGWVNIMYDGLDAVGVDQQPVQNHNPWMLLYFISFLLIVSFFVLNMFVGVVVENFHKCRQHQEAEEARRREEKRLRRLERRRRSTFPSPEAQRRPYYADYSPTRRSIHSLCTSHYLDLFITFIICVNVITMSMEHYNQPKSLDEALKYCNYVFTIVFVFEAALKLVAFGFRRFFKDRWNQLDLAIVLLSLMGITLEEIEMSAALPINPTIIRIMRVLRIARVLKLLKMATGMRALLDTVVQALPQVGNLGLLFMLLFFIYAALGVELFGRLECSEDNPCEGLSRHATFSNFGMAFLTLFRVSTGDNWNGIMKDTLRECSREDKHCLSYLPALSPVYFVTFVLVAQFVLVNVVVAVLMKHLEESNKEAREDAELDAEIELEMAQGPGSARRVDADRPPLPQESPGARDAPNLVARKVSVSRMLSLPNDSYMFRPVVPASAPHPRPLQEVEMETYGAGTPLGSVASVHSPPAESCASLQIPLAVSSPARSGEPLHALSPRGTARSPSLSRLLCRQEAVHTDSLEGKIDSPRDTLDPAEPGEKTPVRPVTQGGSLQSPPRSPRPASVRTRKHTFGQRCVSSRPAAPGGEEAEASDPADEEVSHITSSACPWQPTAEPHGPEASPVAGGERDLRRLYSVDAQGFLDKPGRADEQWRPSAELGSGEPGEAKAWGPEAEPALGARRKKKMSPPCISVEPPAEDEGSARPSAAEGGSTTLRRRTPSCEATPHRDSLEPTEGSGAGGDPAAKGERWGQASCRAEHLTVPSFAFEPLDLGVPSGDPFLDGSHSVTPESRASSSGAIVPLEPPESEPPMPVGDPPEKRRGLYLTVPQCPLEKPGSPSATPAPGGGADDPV
Sequence of Protein-tyrosine kinase 2-beta (Q14289 whole entry): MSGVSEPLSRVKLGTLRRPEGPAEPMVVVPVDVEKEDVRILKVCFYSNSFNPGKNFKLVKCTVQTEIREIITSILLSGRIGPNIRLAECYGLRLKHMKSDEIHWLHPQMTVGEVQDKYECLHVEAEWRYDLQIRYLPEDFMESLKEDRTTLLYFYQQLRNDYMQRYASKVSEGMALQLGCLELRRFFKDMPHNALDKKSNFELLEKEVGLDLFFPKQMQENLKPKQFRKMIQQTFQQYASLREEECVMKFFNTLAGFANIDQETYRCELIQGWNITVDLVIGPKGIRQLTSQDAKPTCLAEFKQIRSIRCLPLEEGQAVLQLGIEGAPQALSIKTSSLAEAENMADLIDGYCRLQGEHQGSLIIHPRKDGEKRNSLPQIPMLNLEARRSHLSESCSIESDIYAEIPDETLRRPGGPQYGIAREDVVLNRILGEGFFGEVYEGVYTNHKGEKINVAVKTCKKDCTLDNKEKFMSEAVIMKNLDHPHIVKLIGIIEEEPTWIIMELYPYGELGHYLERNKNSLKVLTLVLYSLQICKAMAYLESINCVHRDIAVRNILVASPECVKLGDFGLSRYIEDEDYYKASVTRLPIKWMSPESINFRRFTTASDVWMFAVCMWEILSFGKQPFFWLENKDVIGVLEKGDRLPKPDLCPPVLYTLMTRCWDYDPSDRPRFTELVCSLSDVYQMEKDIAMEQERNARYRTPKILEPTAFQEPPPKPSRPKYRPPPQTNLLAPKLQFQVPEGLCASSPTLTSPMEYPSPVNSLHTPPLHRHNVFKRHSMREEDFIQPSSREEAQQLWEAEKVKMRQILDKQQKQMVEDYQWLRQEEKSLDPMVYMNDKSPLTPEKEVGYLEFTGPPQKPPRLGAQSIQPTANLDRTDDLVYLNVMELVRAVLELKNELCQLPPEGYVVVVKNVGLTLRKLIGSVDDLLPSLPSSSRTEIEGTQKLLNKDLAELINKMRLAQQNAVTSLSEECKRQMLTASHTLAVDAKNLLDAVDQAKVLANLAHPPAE
Sequence of Estrogen receptor beta (Q92731 whole entry): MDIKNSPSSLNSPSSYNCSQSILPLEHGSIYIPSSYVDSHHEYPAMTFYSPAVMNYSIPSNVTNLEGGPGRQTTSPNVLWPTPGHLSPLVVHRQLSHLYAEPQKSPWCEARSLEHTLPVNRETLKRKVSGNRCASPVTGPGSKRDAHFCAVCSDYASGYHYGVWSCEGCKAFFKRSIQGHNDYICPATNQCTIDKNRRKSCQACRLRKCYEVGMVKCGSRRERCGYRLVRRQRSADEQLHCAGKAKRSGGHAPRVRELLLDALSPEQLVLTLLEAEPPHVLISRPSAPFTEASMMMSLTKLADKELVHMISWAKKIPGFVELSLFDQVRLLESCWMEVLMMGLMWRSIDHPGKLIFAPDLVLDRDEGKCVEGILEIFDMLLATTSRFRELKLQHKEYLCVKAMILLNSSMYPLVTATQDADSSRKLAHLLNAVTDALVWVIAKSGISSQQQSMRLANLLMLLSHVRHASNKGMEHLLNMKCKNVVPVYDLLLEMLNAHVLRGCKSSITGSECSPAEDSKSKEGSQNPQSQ
Sequence of Cytochrome P450 2C19 (P33261 whole entry): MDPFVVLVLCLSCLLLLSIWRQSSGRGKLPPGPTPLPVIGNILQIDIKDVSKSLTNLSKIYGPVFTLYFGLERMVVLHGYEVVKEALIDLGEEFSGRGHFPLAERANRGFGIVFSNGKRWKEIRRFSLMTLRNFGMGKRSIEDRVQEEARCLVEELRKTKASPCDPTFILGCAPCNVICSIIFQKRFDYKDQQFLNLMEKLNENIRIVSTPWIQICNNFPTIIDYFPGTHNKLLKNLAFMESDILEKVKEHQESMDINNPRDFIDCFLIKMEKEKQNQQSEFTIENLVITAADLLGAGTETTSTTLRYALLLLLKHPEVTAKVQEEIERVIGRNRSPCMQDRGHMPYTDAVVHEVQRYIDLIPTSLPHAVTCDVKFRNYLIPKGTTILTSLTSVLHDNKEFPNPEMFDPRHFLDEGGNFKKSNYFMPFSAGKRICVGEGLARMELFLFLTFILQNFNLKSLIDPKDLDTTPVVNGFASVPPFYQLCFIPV
Sequence of Large T antigen (P03070 whole entry, the tested form may be a part): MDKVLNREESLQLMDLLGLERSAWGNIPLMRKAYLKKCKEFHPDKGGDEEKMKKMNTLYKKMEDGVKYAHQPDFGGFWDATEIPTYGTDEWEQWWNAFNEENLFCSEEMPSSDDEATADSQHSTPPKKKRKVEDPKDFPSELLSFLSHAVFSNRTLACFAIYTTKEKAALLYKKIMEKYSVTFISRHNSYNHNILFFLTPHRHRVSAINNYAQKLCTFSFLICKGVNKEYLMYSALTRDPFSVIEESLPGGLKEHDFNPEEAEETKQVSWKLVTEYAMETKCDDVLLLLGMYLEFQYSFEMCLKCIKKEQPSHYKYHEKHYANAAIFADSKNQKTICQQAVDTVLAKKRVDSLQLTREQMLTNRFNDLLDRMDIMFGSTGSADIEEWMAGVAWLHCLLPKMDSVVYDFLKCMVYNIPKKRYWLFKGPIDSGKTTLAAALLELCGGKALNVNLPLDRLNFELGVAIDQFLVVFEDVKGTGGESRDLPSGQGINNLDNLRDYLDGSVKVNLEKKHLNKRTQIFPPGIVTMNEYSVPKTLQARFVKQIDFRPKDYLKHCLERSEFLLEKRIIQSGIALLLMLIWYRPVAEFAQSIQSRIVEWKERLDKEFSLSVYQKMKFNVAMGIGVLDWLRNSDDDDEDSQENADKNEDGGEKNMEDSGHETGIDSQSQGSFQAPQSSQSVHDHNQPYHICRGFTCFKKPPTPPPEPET

With `O=C(O)c1ccccc1C(=O)NCC(O)c1ccccc1` (configuration not stated) the IC50 [1] was > 29.9 µM (inactive), the EC50 (cells [2]) was > 29.9 µM (inactive) and the IC50 (cells [3]) was > 29.9 µM (inactive). The EC50 [4] was 5.05 µM (active).
In the case of `CCCCc1c(-c2ccccc2OC)ncn1CCc1cccc(F)c1`, the IC50 [1] is reported as 4.33 µM (active), the EC50 (cells [2]) is reported as > 29.9 µM (inactive) and the IC50 (cells [3]) is reported as 15.3 µM (inactive). For the same compound, the EC50 [4] was 2.73 µM (active).
For `C[C@]12CC[C@@H]3c4ccc(O)cc4CC[C@H]3[C@@H]1CC[C@@H]2OC(=O)CCC1CCCC1` [ESTRADIOL CYPIONATE], the CC50 [5] was 30.6 µM (active), the IC50 [6] was > 10 µM (inactive) and the IC50 [7] was > 10 µM (inactive).
For `O=S(=O)(NC1=NCCCCC1)c1ccc2sc(NS(=O)(=O)c3ccc4ccccc4c3)nc2c1`, the IC50 [8] was 156 µM (active), the IC50 (Large T antigen) was 39.4 µM (active) and the IC50 [9] was 9.21 µM (active).
In the case of `Cc1cc(C)cc(OCC(=O)Nc2ccc(N3CCCC3)cc2)c1`, the IC50 (Estrogen receptor beta) is reported as 1.56 µM (active), the IC50 (Coagulation factor XII) is reported as > 50 µM (inactive) and the IC50 [10] is reported as 7.74 µM (active).
For `CCn1c(=O)cc(SCC(=O)N2CCC(C)CC2)c2ccccc21`, the EC50 [11] was > 79.4 µM (inactive), the EC50 [12] was > 79.4 µM (not active) and the EC50 [13] was > 79.4 µM (not active). For the same compound, the IC50 [14] was > 80 µM (inactive).
For `O=C(CCCSc1ccccc1)Nc1nc(-c2ccccn2)cs1`, the EC50 (Streptococcus) was 45.8 µM (active), the EC50 (Streptokinase A) was > 150 µM (not active) and the EC50 [15] was 5.14 µM (active). For the same compound, the IC50 (H9c2) was > 79 µM (inactive) and the EC50 [16] was 4.7 µM (active).
For `Cc1cccc(C)c1NC(=O)C(c1ccc(Cl)cc1Cl)N1CCCCC1` (configuration not stated), the EC50 [16] was 2.39 µM (active).
With `COc1ccc(N(C)C(=O)c2ccc3nc(-c4ccccc4)c(-c4ccccc4)nc3c2)cc1` the EC50 [16] was 3.17 µM (active) and the CC50 [17] was 12.8 µM (active).
For `CC1SC(NC(=O)c2ccncc2)=NC1=O` (configuration not stated), the EC50 (cells [18]) was > 350 µM (not active) and the EC50 (cells [19]) was > 350 µM (not active).
In the case of `CC(C)C(=O)Nc1ccc(NC(=O)c2ccc3c(c2)OCO3)cc1`, the IC50 [14] is reported as > 80 µM (inactive).
With `CN1C(=O)c2cccc3c(S(=O)(=O)NCc4ccco4)ccc1c23` the IC50 [10] was > 69.5 µM (not active).
With `NCCc1ccc(O)cc1` [TYRAMINE] the IC50 [1] was 0.882 µM (active), the EC50 (cells [2]) was > 29.9 µM (inactive) and the IC50 (cells [3]) was > 29.9 µM (inactive). The EC50 [4] was 0.178 µM (active) and the AC50 (Cytochrome P450 2C19) was “inconclusive”.
With `CCc1ccc2nc(Nc3nc(O)cc(COC)n3)nc(C)c2c1` the IC50 [14] was > 80 µM (inactive).
With `CC[C@@H]([C@H](C)O)n1ncn(-c2ccc(N3CCN(c4ccc(OC[C@@H]5CO[C@@](Cn6cncn6)(c6ccc(F)cc6F)C5)cc4)CC3)cc2)c1=O` the IC50 [6] was > 10 µM (inactive) and the IC50 [7] was > 10 µM (inactive).
For `O=C(Nc1ccc(F)cc1)Nc1ccc(Oc2ncnc3cc(Cl)ccc23)nc1`, the IC50 [1] was 0.373 µM (active), the EC50 (cells [2]) was > 29.9 µM (inactive) and the IC50 (cells [3]) was > 29.9 µM (inactive). The EC50 [4] was > 29.9 µM (inactive).
In the case of `COc1ccc(/C=C/C(=O)c2cc(F)ccc2OC(=O)c2ccc(OC)c(OC)c2)cc1OC`, the IC50 [9] is reported as 5.27 µM (active).
In the case of `CCCCn1c(/C=N/Nc2nc3ccccc3[nH]2)nc2ccccc21`, the EC50 (Streptococcus) is reported as 3.74 µM (active), the AC50 (INS1) is reported as 3.54 µM (active) and the EC50 (cells [18]) is reported as 43.7 µM (active). The EC50 (cells [19]) was > 350 µM (not active) and the EC50 [15] was 1.66 µM (active).
In the case of `CC(C)Oc1cc(NC(=O)C[S+]([O-])CC(=O)Nc2cccc(C(F)(F)F)c2)c(Cl)cc1Cl` (configuration not stated), the EC50 [16] is reported as 3.23 µM (active).
